Results on two compounds are retold here after patent US11713331B2, “Benzene 1,4-bis(bisphosphonic acid)-based metal complexes, method of synthesis and applications thereof” (priority 2020, dated 2023).

The conditions of assay [1]: after 7 days, binding curve before reported; cited from earlier work.
Assay [2] concerns human breast cancer MDA-MB-231 cell line. The class given is cell-based. To be noted: 0-200 μM. The method, then:
(§1) Cell Culture Methods. Media with DMEM, 5% FBS, and 1% Pen-Strep were used to incubate MDA-MB-231 cells at 37° C. with 5% CO2. The osteoblast hFOB 1.19 cell line was incubated at 34° C., 5% CO2, in 1:1 DMEM:F-12 supplemented with 0.3 mg/mL G418, and 10% FBS. Cell passages were performed weekly at 80.0% confluency. Media exchanges were carried out twice every 7 d.
(§2) Cell treatment. […] Cells (MDA-MB-231, hFOB 1.19) were seeded in 96 well plates at a density of 2.5×10^5 cells/mL. The 96 well plates were incubated at 37° C. with 5% CO2 for 24 h. Three 96 well plates were prepared per time point (24, 48, and 72 h). […] Cells were incubated at 37° C. and 5% CO2 for 24, 48, and 72 h. Control groups were treated with media (MDA-MB-231 with DMEM, 1% Pen-Strep) and (hFOB 1.19 with 1:1 DMEM:F-12, 0.3 mg/mL G418). Cell proliferation was determined after each point time of treatment. A 10% AlamarBlue® solution was previously prepared using PBS. The media was removed from all 96 well plates and 100 μL of AlamarBlue® solution was added. The 96 well plates were incubated for 4 h (MDA-MB-231 at 37° C., 5% CO2) and (hFOB 1.19 at 34° C., 5% CO2). The fluorescence was measured at 560 nm of excitation and lambda max 590 nm of emission. […] The experiments for the % RCL were performed employing the same conditions previously mentioned for the IC50 determination. All experiments were accomplished in triplicate. The GraphPad Prism 8 vs 8.3.1 was utilized to generate the IC50 curves and to plot the % RCL graphs.
(§3) Furthermore, the cytotoxicity of these materials was also achieved using the osteoblast-like hFOB 1.19 cell line, within work, these immortalized human cells were used to simulate the human bone microenvironment (not cancerous cells). […] Control groups were treated with media (DMEM, 1% Pen-Strep, MDA-MB-231) and (1:1 DMEM:F12, 0.3 mg/mL G418, hFOB 1.19), respectively. AlamarBlue® assay was employed to determine cell proliferation after each time point.
(§4) Cell Culture Methods—Media with DMEM, 5% FBS, and 1% Pen-Strep were used to incubate MDA-MB-231 cells at 37° C. with 5% CO2. The osteoblast hFOB 1.19 cell line was incubated at 34° C., 5% CO2 in 1:1 DMEM:F-12 supplemented with 0.3 mg/mL G418, and 10% FBS. Cell passages were performed weekly at 80.0% confluency. Media exchanges were carried out twice every 7 d.
(§5) Cell seeding—Both cells were seeded in 96 well plates at a density of 2.5×10^5 cells/mL. The 96 well plates were incubated at 37° C. (MDA-MB-231) and 34° C. […] Experiments were performed in triplicate.
(§6) (MDA-MB-231) and 34° C. […] All experiments were accomplished in triplicate.

For assay [3], the system named is normal osteoblast-like hFOB 1.19 cell line. The class given is cell-based. To be noted: 0-200 μM. The method, then:
as §1, §2, §3, §4, §5, §6

The nature of assay [4]: Binding assay to hydroxyapatite (HA). To be noted: 0.5 mg/mL, 20 mg HA, PBS. The method, then: Hydroxyapatite (HA) treatment. […] The experiment was carried out for 0-12 days, in stirring at 120 rpm. […] The supernatant was centrifuged for 8 min (500 rcf) and the absorbance was measured at 231 nm. Solid samples were characterized by SEM-EDS, TGA, and PXRD.
The experiment was carried out for 0-12 days, in constant stirring at 120 rpm. […] The supernatant was centrifuged for 8 min (500 rcf) and the absorbance was measured at 231 nm. Solid samples were characterized by SEM-EDS and PXRD.

What is called IC50 is the concentration that inhibits the measured activity by half. Low readings indicate inhibition by little substance, high ones a need for much substance.

Like-named read-outs stand apart in the source and are kept apart here. Bounds are passed on as bounds.

For `NCCCC(O)(P(=O)(O)O)P(=O)(O)O` [ALEN, Alendronic acid], the “% Binding to HA” value in assay [1] is over 95%.
For the compound “benzene 1,4-bis(bisphosphonic acid) [BBPA]”, the IC50 in assay [2] (MDA-MB-231, 24 h of treatment) is over 200 µM; in assay [2] (MDA-MB-231, 48 h of treatment) it was over 200 µM; in assay [2] (MDA-MB-231, 72 h of treatment) it was over 200 µM; in assay [3] (hFOB 1.19, 24 h of treatment), over 200 µM; in assay [3] (hFOB 1.19, 48 h of treatment), over 200 µM; in assay [3] (hFOB 1.19, 72 h of treatment), over 200 µM. In addition, the “% Binding to HA” value in assay [4] (0 d) came to 0%; in assay [4] (1 d), 1%; in assay [4] (2 d), 39%; in assay [4] (3 d) it was 54%; in assay [4] (4 d), 74%.
